Common to all, as to assay type: cell-based
In one assay the test system is Aeromonas salmonicida. In words: In vitro antibacterial activity of Compound D against various pathogenic bacteria for fish (agar MIC, Test Example 2). The note with it: 20 h, read-out: MIC (minimum growth-inhibition concentration). On the procedure: (§1) In vitro antibacterial activity of Compound D against Various Pathogenic Bacteria for Fish
(§2) Each of the test strains was cultured over-night, and the resultant culture broth (containing about 10^6 cells/ml) was innoculated in Mueller-Hinton agar (DIFCO) supplied with 1.0-2.0% sodium chloride and containing the test compound at the specified concentration.

Assay [1] relates to Pseudomonas anguilliseptica. Described as above. The note with it: 20 h, read-out: MIC (minimum growth-inhibition concentration). On the procedure: as §1, §2
Assay [2] concerns Pasteurella piscicida. Described as above. The note with it: Photobacterium damselae, 20 h, read-out: MIC (minimum growth-inhibition concentration). How it is done:
as §1, §2

Assay [3] deals with Vibrio anguillarum. The assay is described as above. The note with it: 20 h. On the procedure: as §1, §2
The next assay has as its system Edwardsiella tarda. Described as above. The note with it: 20 h, read-out: MIC (minimum growth-inhibition concentration). How it is done:
as §1, §2

The test system of a further assay is Streptococcus sp. Described as above. The note with it: 20 h, read-out: MIC (minimum growth-inhibition concentration). On the procedure: as §1, §2
For assay [4], the system named is Aeromonas hydrophila. Description: In vitro antibacterial activity on pathogenic bacteria for fish (agar MIC, Test Example 1). The note with it: 20 h; for MIC (minimum growth-inhibition concentration): Mueller-Hinton agar; for MIC: Aeromonas hydrophila. How it is done:
(§3) In vitro antibacterial activity on pathogenic-bacteria for fish
(§4) Each of the test strains was cultured over-night, and each culture broth (containing about 10^6 cells/ml) was innoculated in Mueller-Hinton agar (DIFCO) supplied with 1.0-2.0% sodium chloride and containing the test compound at each specified concentration.

The test system of assay [5] is Pasteurella piscicida. Described as above. The note with it: 20 h; for MIC (minimum growth-inhibition concentration): Mueller-Hinton agar; for MIC: Photobacterium damselae. On the procedure: as §3, §4
For assay [6], the system named is Vibrio anguillarum. The assay is described as above. The note with it: 20 h; for MIC: Vibrio anguillarum, read-out: MIC (minimum growth-inhibition concentration); for MIC (minimum growth-inhibition concentration): Mueller-Hinton agar. On the procedure:
as §3, §4

Assay [7] deals with Aeromonas hydrophila. In words: In vitro antibacterial activity of Compound D against various pathogenic bacteria for fish (agar MIC, Test Example 2). The note with it: 20 h, read-out: MIC (minimum growth-inhibition concentration). On the procedure:
as §1, §2

[8] abbreviates: 25 strains, Mueller-Hinton agar, 25-30 °C.
Where [9] appears, read: Aeromonas hydrophila strain KA8301, Mueller-Hinton agar, 25-30 °C, read-out: MIC (minimum growth-inhibition concentration).
[10] abbreviates: Pasteurella piscicida strain EH8304, Mueller-Hinton agar, 25-30 °C, read-out: MIC (minimum growth-inhibition concentration).
The mark [11] stands for this setting: Pasteurella piscicida strain EH8312, Mueller-Hinton agar, 25-30 °C, read-out: MIC (minimum growth-inhibition concentration).
[12] abbreviates: Pasteurella piscicida strain EH8313, Mueller-Hinton agar, 25-30 °C, read-out: MIC (minimum growth-inhibition concentration).
[13] abbreviates: Vibrio anguillarum strain NA8340, Mueller-Hinton agar, 25-30 °C.
[14] abbreviates: Vibrio anguillarum strain NA8341, Mueller-Hinton agar, 25-30 °C.
[15] abbreviates: Vibrio anguillarum strain NA8346, Mueller-Hinton agar, 25-30 °C.
The mark [16] stands for this setting: Vibrio anguillarum strain NA8347, Mueller-Hinton agar, 25-30 °C.
[17] abbreviates: Vibrio anguillarum strain NH8410, Mueller-Hinton agar, 25-30 °C.

Values after ≈ are worked out from the molar mass of the structure shown. Where two headings read alike, the source gives them in different places.

In the case of `CCN1CCN(c2cc3c(cc2F)c(=O)c(C(=O)O)cn3C2CC2)CC1` [Compound D, 1-cyclopropyl-6-fluoro-1,4-dihydro-4-oxo-7-(4-ethylpiperazino)-quinoline-3-carboxylic acid], the MIC lay within 0.0125 to 0.1 µg/mL (≈ 0.0348 to 0.278 µM) in the assay with Aeromonas salmonicida (setting [8]); 0.0125 to 0.025 µg/mL (≈ 0.0348 to 0.0696 µM) in [1] (18 strains, Mueller-Hinton agar, 25-30 °C); 0.0125 to 0.05 µg/mL (≈ 0.0348 to 0.139 µM) in the assay on Pasteurella piscicida [2] (Pasteurella piscicida, 25 strains, Mueller-Hinton agar, 25-30 °C); 0.025 to 0.4 µg/mL (≈ 0.0696 to 1.11 µM) in the assay with Vibrio anguillarum [3] (Ayu origin, 25 strains, Mueller-Hinton agar, 25-30 °C, read-out: MIC (minimum growth-inhibition concentration)); 0.05 to 0.1 µg/mL (≈ 0.139 to 0.278 µM) in the assay on Vibrio anguillarum [3] (Yellowtail origin, 25 strains, Mueller-Hinton agar, 25-30 °C, read-out: MIC (minimum growth-inhibition concentration)); 0.025 to 0.2 µg/mL (≈ 0.0696 to 0.556 µM) in the assay on Edwardsiella tarda (setting [8]). Further, the MIC came to 0.8 µg/mL (≈ 2.23 µM) in the assay on Streptococcus sp. (Streptococcus sp., 25 strains, Mueller-Hinton agar, 25-30 °C); 0.025 µg/mL (≈ 0.0696 µM) in the assay on Aeromonas hydrophila [4] (setting [9]); 0.05 µg/mL (≈ 0.139 µM) in the assay with Pasteurella piscicida [5] (setting [10]); 0.05 µg/mL (≈ 0.139 µM) with Pasteurella piscicida [5] (setting [11]); 0.05 µg/mL (≈ 0.139 µM) in the assay on Pasteurella piscicida [5] (setting [12]); 0.025 µg/mL (≈ 0.0696 µM) in the assay on Vibrio anguillarum [6] (setting [13]). Moreover, the MIC with Vibrio anguillarum [6] (setting [14]), with Vibrio anguillarum [6] (setting [15]), with Vibrio anguillarum [6] (setting [16]) and in the assay with Vibrio anguillarum [6] (setting [17]) was 0.025 µg/mL (≈ 0.0696 µM) each time. For the same molecule, the “MIC (minimum growth-inhibition concentration)” value with Aeromonas hydrophila [4] (Aeromonas hydrophila strain C 44, 25-30 °C) was under 0.0125 µg/mL; with Aeromonas hydrophila [4] (Aeromonas hydrophila strain KA8414, 25-30 °C), under 0.0125 µg/mL; against Aeromonas hydrophila [4] (Aeromonas hydrophila strain KA8416, 25-30 °C), under 0.0125 µg/mL; in the assay with Aeromonas hydrophila [4] (Aeromonas hydrophila strain M 183, 25-30 °C), under 0.0125 µg/mL; against Pasteurella piscicida [5] (Pasteurella piscicida strain EH8309, 25-30 °C), 0.025 µg/mL (≈ 0.0696 µM); against Pasteurella piscicida [5] (Pasteurella piscicida strain NG8319, 25-30 °C), 0.025 µg/mL (≈ 0.0696 µM).

In the case of `CCOC(=O)c1cn(C2CC2)c2cc(N3CCN(CC)CC3)c(F)cc2c1=O` [Compound H, ethyl 1-cyclopropyl-6-fluoro-1,4-dihydro-4-oxo-7-(4-ethylpiperazino)-quinoline-3-carboxylate], the MIC with Aeromonas hydrophila [4] (Aeromonas hydrophila strain C 44, Mueller-Hinton agar, 25-30 °C, read-out: MIC (minimum growth-inhibition concentration)) was 50 µg/mL (≈ 129 µM); with Aeromonas hydrophila [4] (setting [9]), 12.5 µg/mL (≈ 32.3 µM); in the assay with Aeromonas hydrophila [4] (Aeromonas hydrophila strain KA8414, Mueller-Hinton agar, 25-30 °C, read-out: MIC (minimum growth-inhibition concentration)) it was 25 µg/mL (≈ 64.5 µM); in the assay on Aeromonas hydrophila [4] (Aeromonas hydrophila strain KA8416, Mueller-Hinton agar, 25-30 °C, read-out: MIC (minimum growth-inhibition concentration)), 12.5 µg/mL (≈ 32.3 µM); in the assay on Aeromonas hydrophila [4] (Aeromonas hydrophila strain M 183, Mueller-Hinton agar, 25-30 °C, read-out: MIC (minimum growth-inhibition concentration)), 12.5 µg/mL (≈ 32.3 µM); in the assay on Pasteurella piscicida [5] (setting [10]) it was 25 µg/mL (≈ 64.5 µM). Further, the MIC in the assay on Pasteurella piscicida [5] (Pasteurella piscicida strain EH8309, Mueller-Hinton agar, 25-30 °C, read-out: MIC (minimum growth-inhibition concentration)) came to 25 µg/mL (≈ 64.5 µM); in the assay on Pasteurella piscicida [5] (setting [11]), 12.5 µg/mL (≈ 32.3 µM); in the assay on Pasteurella piscicida [5] (setting [12]), 12.5 µg/mL (≈ 32.3 µM); in the assay with Pasteurella piscicida [5] (Pasteurella piscicida strain NG8319, Mueller-Hinton agar, 25-30 °C, read-out: MIC (minimum growth-inhibition concentration)) it was 25 µg/mL (≈ 64.5 µM); with Vibrio anguillarum [6] (setting [13]), 25 µg/mL (≈ 64.5 µM); in the assay on Vibrio anguillarum [6] (setting [14]), 25 µg/mL (≈ 64.5 µM). Further, the MIC in the assay with Vibrio anguillarum [6] (setting [15]), with Vibrio anguillarum [6] (setting [16]) and in the assay on Vibrio anguillarum [6] (setting [17]) was 12.5 µg/mL (≈ 32.3 µM) each time.

On to `CCn1cc(C(=O)O)c(=O)c2cc3c(cc21)OCO3` [Compound OA, 1-ethyl-1,4-dihydro-6,7-methylenedioxy-4-oxo-3-quinolinecarboxylic acid, reference compound], for which the MIC lay within 0.05 to 3.2 µg/mL (≈ 0.191 to 12.2 µM) in the assay on Aeromonas salmonicida; 0.0125 to 0.025 µg/mL (≈ 0.0479 to 0.0957 µM) in the assay with Aeromonas hydrophila [7]; 0.0125 to 0.05 µg/mL (≈ 0.0479 to 0.191 µM) in [1]; 0.025 to 0.1 µg/mL (≈ 0.0957 to 0.383 µM) in the assay on Pasteurella piscicida [2]; 0.05 to 25 µg/mL (≈ 0.191 to 95.7 µM) in the assay with Vibrio anguillarum [3] (read-out: MIC (minimum growth-inhibition concentration), Vibrio anguillarum, Ayu origin, 25 strains, Mueller-Hinton agar, 25-30 °C); 0.025 to 0.05 µg/mL (≈ 0.0957 to 0.191 µM) in the assay on Vibrio anguillarum [3] (read-out: MIC (minimum growth-inhibition concentration), Vibrio anguillarum, Yellowtail origin, 25 strains, Mueller-Hinton agar, 25-30 °C). Further, the MIC in the assay with Edwardsiella tarda is 0.05 to 1.6 µg/mL (≈ 0.191 to 6.12 µM); in the assay on Streptococcus sp. (Streptococcus), 200 to 400 µg/mL (≈ 766 to 1530 µM); in the assay on Aeromonas hydrophila [4] (read-out: MIC (minimum growth-inhibition concentration), Aeromonas hydrophila strain C 44, Mueller-Hinton agar, 25-30 °C), under 0.0125 µg/mL; in the assay on Aeromonas hydrophila [4] (read-out: MIC (minimum growth-inhibition concentration), Aeromonas hydrophila strain KA8301, Mueller-Hinton agar, 25-30 °C), under 0.0125 µg/mL; with Aeromonas hydrophila [4] (read-out: MIC (minimum growth-inhibition concentration), Aeromonas hydrophila strain KA8414, Mueller-Hinton agar, 25-30 °C), under 0.0125 µg/mL; in the assay with Aeromonas hydrophila [4] (read-out: MIC (minimum growth-inhibition concentration), Aeromonas hydrophila strain KA8416, Mueller-Hinton agar, 25-30 °C), under 0.0125 µg/mL. Besides, the MIC is under 0.0125 µg/mL with Aeromonas hydrophila [4] (read-out: MIC (minimum growth-inhibition concentration), Aeromonas hydrophila strain M 183, Mueller-Hinton agar, 25-30 °C); 0.1 µg/mL (≈ 0.383 µM) in the assay on Pasteurella piscicida [5] (read-out: MIC (minimum growth-inhibition concentration), Pasteurella piscicida strain EH8304, Mueller-Hinton agar, 25-30 °C); 0.1 µg/mL (≈ 0.383 µM) with Pasteurella piscicida [5] (read-out: MIC (minimum growth-inhibition concentration), Pasteurella piscicida strain EH8309, Mueller-Hinton agar, 25-30 °C); 0.1 µg/mL (≈ 0.383 µM) in the assay on Pasteurella piscicida [5] (read-out: MIC (minimum growth-inhibition concentration), Pasteurella piscicida strain EH8312, Mueller-Hinton agar, 25-30 °C); 0.1 µg/mL (≈ 0.383 µM) in the assay on Pasteurella piscicida [5] (read-out: MIC (minimum growth-inhibition concentration), Pasteurella piscicida strain EH8313, Mueller-Hinton agar, 25-30 °C); 0.1 µg/mL (≈ 0.383 µM) in the assay with Pasteurella piscicida [5] (read-out: MIC (minimum growth-inhibition concentration), Pasteurella piscicida strain NG8319, Mueller-Hinton agar, 25-30 °C). Also, in the assay on Vibrio anguillarum [6], the MIC was determined as 0.05 µg/mL (≈ 0.191 µM). Besides, the “MIC (minimum growth-inhibition concentration)” value against Vibrio anguillarum [6] (Vibrio anguillarum strain NA8340, 25-30 °C) is 0.05 µg/mL (≈ 0.191 µM); with Vibrio anguillarum [6] (Vibrio anguillarum strain NA8341, 25-30 °C) it was 0.05 µg/mL (≈ 0.191 µM); with Vibrio anguillarum [6] (Vibrio anguillarum strain NA8346, 25-30 °C), 0.05 µg/mL (≈ 0.191 µM); in the assay on Vibrio anguillarum [6] (Vibrio anguillarum strain NA8347, 25-30 °C), 0.05 µg/mL (≈ 0.191 µM).
